Assays:
[1] = test system: U2932; experiment: Induction of apoptosis in human U2932 cells assessed as induction of PARP cleavage after 48 hrs by immunoblot; type: functional, cell-based
[2] = MRT (0 to t) in Sprague-Dawley rat at 10 mg/kg, po by LC-MS/MS method; type: ADME, organism-based; conditions: in vivo
[3] = target: Serine/threonine-protein kinase DCLK2 (Homo sapiens) (UniProt Q8N568); experiment: Inhibition of wild-type human partial length DCAMKL2 (K273 to V664 residues) expressed in bacterial expression system assessed as residual activity at 1 uM by Kinomescan method relative to control
[4] = test system: Epidermal growth factor receptor (Homo sapiens), P00533 [UNDEFINED MUTATION]; experiment: Inhibition of human partial length EGFR L747-E749del/A750P mutant expressed in bacterial expression system assessed as residual activity at 1 uM by Kinomescan method relative to control
[5] = target: Mitogen-activated protein kinase 3 (Homo sapiens) (UniProt P27361); experiment: Inhibition of wild-type human full length ERK1 (M1 to P379 residues) expressed in bacterial expression system assessed as residual activity at 1 uM by Kinomescan method relative to control
[6] = target: Vascular endothelial growth factor receptor 1 (Homo sapiens) (UniProt P17948); experiment: Inhibition of wild-type human partial length FLT1 (R781 to F1239 residues) expressed in bacterial expression system assessed as residual activity at 1 uM by Kinomescan method relative to control
[7] = test system: Receptor-type tyrosine-protein kinase FLT3 (Homo sapiens), P36888 [D835Y]; experiment: Inhibition of human partial length FLT3 D835Y mutant (Q580 to Y969 residues) expressed in bacterial expression system assessed as residual activity at 1 uM by Kinomescan method relative to control
[8] = target: Vascular endothelial growth factor receptor 3 (Homo sapiens) (UniProt P35916); experiment: Inhibition of wild-type human partial length FLT4 (E821 to E1196 residues) expressed in bacterial expression system assessed as residual activity at 1 uM by Kinomescan method relative to control
[9] = target: Homeodomain-interacting protein kinase 1 (Homo sapiens) (UniProt Q86Z02); experiment: Inhibition of wild-type human partial length HIPK1 (M146 to I555 residues) expressed in mammalian expression system assessed as residual activity at 1 uM by Kinomescan method relative to control
[10] = target: Insulin-like growth factor 1 receptor (Homo sapiens) (UniProt P08069); experiment: Inhibition of wild-type human partial length IGF1R (L972 to D1294 residues) expressed in bacterial expression system assessed as residual activity at 1 uM by Kinomescan method relative to control
[11] = target: Tyrosine-protein kinase ITK/TSK (Homo sapiens) (UniProt Q08881); experiment: Inhibition of wild-type human partial length ITK (R335 to L620 residues) expressed in bacterial expression system assessed as residual activity at 1 uM by Kinomescan method relative to control
[12] = target: Leucine-rich repeat serine/threonine-protein kinase 2 (Homo sapiens) (UniProt Q5S007); experiment: Inhibition of wild-type human partial length LRRK2 (H970 to E2527 residues) expressed in mammalian expression system assessed as residual activity at 1 uM by Kinomescan method relative to control
[13] = target: Mitogen-activated protein kinase kinase kinase 4 (Homo sapiens) (UniProt Q9Y6R4); experiment: Inhibition of wild-type human partial length MAP3K4 (G1319 to E1608 residues) expressed in bacterial expression system assessed as residual activity at 1 uM by Kinomescan method relative to control
[14] = target: Dual specificity mitogen-activated protein kinase kinase 4 (Homo sapiens) (UniProt P45985); experiment: Inhibition of wild-type human partial length MEK4 (S84 to D399 residues) expressed in mammalian expression system assessed as residual activity at 1 uM by Kinomescan method relative to control
[15] = test system: Phosphatidylinositol 4,5-bisphosphate 3-kinase catalytic subunit alpha isoform (Homo sapiens), P42336 [E545A]; experiment: Inhibition of human partial length PIK3CA E545A mutant (R108 to N1068 residues) expressed in mammalian expression system assessed as residual activity at 1 uM by Kinomescan method relative to control
[16] = target: Serine/threonine-protein kinase N1 (Homo sapiens) (UniProt Q16512); experiment: Inhibition of wild-type human partial length PKN1 (E598 to C948 residues) expressed in bacterial expression system assessed as residual activity at 1 uM by Kinomescan method relative to control
[17] = target: Serine/threonine-protein kinase PRP4 homolog (Homo sapiens) (UniProt Q13523); experiment: Inhibition of wild-type human partial length PRP4 (D657 to I1007 residues) expressed in bacterial expression system assessed as residual activity at 1 uM by Kinomescan method relative to control
[18] = test system: Proto-oncogene tyrosine-protein kinase receptor Ret (Homo sapiens), P07949 [V804L]; experiment: Inhibition of human partial length RET V804L mutant (E713 to D1014 residues) expressed in bacterial expression system assessed as residual activity at 1 uM by Kinomescan method relative to control
[19] = target: Serine/threonine-protein kinase RIO1 (Homo sapiens) (UniProt Q9BRS2); experiment: Inhibition of wild-type human full length RIOK1 (M1 to K568 residues) expressed in bacterial expression system assessed as residual activity at 1 uM by Kinomescan method relative to control
[20] = target: Ribosomal protein S6 kinase alpha-3 (Homo sapiens) (UniProt P51812); experiment: Inhibition of wild-type human partial length C-terminal RSK2 kinase domain 2 (V402 to S715 residues) expressed in mammalian expression system assessed as residual activity at 1 uM by Kinomescan method relative to control
[21] = target: Tyrosine-protein kinase SYK (Homo sapiens) (UniProt P43405); experiment: Inhibition of wild-type human partial length SYK (D354 to N635 residues) expressed in bacterial expression system assessed as residual activity at 1 uM by Kinomescan method relative to control
[22] = target: Mitogen-activated protein kinase kinase kinase 7 (Homo sapiens) (UniProt O43318); experiment: Inhibition of wild-type human partial length TAK1 (M1 to Q303 residues) expressed in mammalian expression system assessed as residual activity at 1 uM by Kinomescan method relative to control
[23] = target: Serine/threonine-protein kinase TAO2 (Homo sapiens) (UniProt Q9UL54); experiment: Inhibition of wild-type human partial length TAOK2 (M1 to A320 residues) expressed in mammalian expression system assessed as residual activity at 1 uM by Kinomescan method relative to control
[24] = target: TRAF2 and NCK-interacting protein kinase (Homo sapiens) (UniProt Q9UKE5); experiment: Inhibition of wild-type human partial length TNIK (D4 to K311 residues) expressed in bacterial expression system assessed as residual activity at 1 uM by Kinomescan method relative to control
[25] = target: Serine/threonine-protein kinase ULK3 (Homo sapiens) (UniProt Q6PHR2); experiment: Inhibition of wild-type human partial length ULK3 (M1 to Q290 residues) expressed in mammalian expression system assessed as residual activity at 1 uM by Kinomescan method relative to control

Chain of Insulin-like growth factor 1 receptor (Homo sapiens) (P08069 31-736 limits assumed): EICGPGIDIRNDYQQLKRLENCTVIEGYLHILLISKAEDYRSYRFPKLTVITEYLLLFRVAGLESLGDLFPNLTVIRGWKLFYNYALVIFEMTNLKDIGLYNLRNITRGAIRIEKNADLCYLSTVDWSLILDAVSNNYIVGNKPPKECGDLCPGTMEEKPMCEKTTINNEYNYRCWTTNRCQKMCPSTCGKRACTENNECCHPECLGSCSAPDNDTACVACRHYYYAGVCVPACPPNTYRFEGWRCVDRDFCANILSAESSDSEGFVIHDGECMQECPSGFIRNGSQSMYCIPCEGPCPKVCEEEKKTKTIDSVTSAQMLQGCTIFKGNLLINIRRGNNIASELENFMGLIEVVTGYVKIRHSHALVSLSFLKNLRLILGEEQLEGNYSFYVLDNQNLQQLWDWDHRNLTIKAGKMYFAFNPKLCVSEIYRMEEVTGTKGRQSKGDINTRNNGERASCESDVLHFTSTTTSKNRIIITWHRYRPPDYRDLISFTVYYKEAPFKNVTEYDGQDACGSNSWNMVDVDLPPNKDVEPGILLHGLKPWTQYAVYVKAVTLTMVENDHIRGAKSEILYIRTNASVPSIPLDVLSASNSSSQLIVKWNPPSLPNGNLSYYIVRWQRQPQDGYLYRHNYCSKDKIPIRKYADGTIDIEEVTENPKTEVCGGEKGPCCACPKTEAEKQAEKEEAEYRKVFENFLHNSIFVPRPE
Chain of Insulin-like growth factor 1 receptor (Homo sapiens) (P08069 741-1367 limits assumed): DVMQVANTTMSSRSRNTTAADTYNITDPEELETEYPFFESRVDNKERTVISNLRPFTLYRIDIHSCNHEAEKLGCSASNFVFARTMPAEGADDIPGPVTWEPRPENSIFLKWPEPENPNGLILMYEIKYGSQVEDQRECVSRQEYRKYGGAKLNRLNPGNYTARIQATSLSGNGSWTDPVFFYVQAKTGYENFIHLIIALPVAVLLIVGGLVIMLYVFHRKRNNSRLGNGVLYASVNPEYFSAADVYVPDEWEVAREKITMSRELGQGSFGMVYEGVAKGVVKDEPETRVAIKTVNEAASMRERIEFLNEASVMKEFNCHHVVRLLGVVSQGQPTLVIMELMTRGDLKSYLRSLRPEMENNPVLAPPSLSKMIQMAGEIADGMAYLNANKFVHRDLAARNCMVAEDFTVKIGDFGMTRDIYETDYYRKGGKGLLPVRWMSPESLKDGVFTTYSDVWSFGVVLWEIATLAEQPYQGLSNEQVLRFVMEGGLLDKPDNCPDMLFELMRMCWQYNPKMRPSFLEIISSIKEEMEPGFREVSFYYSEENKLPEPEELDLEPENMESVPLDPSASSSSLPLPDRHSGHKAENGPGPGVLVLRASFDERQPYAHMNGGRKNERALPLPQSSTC
Chain of Serine/threonine-protein kinase RIO1 (Homo sapiens) (Q9BRS2 whole entry, the tested form may be a part): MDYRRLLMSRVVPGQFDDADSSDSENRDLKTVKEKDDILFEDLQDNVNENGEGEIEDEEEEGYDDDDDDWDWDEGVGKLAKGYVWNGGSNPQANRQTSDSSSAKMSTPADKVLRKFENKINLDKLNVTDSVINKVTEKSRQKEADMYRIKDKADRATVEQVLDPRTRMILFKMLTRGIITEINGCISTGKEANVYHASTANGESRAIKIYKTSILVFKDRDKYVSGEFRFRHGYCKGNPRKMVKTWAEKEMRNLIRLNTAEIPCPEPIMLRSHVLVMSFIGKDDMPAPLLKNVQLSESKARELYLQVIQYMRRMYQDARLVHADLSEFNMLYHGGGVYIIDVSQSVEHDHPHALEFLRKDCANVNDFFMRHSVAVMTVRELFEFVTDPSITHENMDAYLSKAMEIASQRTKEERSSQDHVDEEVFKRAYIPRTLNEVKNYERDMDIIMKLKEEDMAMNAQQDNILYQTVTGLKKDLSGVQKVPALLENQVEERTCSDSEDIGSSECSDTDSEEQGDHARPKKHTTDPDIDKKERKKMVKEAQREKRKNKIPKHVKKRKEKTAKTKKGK
Chain of Proto-oncogene tyrosine-protein kinase receptor Ret (Homo sapiens), P07949 [V804L] (P07949 whole entry V804L, the tested form may be a part): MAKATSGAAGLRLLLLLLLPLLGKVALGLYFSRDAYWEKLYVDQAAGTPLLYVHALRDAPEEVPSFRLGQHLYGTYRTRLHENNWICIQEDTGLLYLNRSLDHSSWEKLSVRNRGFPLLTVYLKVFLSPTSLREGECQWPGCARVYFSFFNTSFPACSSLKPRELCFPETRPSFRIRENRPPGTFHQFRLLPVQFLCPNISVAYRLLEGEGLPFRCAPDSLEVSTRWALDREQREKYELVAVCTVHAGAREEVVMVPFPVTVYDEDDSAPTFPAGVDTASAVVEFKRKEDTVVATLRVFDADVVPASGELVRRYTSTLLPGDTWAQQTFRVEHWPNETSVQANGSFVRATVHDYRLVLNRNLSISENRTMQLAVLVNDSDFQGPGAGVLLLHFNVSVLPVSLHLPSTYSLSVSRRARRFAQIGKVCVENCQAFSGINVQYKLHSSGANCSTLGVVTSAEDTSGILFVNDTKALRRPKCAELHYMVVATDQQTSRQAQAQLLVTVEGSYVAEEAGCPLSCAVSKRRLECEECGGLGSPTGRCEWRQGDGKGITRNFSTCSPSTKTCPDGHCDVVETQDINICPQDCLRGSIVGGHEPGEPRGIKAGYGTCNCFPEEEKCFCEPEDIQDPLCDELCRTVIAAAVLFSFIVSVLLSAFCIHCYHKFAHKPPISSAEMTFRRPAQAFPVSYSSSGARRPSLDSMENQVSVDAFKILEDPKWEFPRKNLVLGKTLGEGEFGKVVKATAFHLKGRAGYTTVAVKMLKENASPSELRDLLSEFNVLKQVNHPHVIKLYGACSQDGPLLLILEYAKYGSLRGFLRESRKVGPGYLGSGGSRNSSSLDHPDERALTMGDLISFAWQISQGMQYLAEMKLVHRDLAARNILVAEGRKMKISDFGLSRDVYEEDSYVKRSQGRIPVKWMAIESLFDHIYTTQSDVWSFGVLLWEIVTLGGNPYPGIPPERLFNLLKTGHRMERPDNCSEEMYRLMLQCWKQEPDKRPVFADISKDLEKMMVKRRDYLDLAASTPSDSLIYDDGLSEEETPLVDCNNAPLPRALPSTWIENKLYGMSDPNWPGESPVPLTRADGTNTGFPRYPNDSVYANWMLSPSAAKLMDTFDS
Chain of Tyrosine-protein kinase ITK/TSK (Homo sapiens) (Q08881 whole entry, the tested form may be a part): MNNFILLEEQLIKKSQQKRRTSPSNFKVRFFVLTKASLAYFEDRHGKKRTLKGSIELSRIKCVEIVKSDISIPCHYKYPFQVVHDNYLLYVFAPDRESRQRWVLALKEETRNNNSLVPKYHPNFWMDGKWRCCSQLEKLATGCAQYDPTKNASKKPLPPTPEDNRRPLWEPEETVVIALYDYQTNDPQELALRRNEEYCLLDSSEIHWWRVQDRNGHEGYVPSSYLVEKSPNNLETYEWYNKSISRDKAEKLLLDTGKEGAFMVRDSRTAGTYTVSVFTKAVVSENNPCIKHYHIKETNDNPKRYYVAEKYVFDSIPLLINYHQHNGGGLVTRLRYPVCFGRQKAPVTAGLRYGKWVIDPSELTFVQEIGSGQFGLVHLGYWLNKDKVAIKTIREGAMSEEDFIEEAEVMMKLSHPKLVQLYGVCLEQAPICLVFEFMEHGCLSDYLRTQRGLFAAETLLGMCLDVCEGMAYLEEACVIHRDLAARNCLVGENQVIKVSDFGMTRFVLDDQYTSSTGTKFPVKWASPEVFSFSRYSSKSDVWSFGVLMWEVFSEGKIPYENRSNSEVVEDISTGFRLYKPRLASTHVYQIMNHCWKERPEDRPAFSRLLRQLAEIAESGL
Chain of Vascular endothelial growth factor receptor 1 (Homo sapiens) (P17948 whole entry, the tested form may be a part): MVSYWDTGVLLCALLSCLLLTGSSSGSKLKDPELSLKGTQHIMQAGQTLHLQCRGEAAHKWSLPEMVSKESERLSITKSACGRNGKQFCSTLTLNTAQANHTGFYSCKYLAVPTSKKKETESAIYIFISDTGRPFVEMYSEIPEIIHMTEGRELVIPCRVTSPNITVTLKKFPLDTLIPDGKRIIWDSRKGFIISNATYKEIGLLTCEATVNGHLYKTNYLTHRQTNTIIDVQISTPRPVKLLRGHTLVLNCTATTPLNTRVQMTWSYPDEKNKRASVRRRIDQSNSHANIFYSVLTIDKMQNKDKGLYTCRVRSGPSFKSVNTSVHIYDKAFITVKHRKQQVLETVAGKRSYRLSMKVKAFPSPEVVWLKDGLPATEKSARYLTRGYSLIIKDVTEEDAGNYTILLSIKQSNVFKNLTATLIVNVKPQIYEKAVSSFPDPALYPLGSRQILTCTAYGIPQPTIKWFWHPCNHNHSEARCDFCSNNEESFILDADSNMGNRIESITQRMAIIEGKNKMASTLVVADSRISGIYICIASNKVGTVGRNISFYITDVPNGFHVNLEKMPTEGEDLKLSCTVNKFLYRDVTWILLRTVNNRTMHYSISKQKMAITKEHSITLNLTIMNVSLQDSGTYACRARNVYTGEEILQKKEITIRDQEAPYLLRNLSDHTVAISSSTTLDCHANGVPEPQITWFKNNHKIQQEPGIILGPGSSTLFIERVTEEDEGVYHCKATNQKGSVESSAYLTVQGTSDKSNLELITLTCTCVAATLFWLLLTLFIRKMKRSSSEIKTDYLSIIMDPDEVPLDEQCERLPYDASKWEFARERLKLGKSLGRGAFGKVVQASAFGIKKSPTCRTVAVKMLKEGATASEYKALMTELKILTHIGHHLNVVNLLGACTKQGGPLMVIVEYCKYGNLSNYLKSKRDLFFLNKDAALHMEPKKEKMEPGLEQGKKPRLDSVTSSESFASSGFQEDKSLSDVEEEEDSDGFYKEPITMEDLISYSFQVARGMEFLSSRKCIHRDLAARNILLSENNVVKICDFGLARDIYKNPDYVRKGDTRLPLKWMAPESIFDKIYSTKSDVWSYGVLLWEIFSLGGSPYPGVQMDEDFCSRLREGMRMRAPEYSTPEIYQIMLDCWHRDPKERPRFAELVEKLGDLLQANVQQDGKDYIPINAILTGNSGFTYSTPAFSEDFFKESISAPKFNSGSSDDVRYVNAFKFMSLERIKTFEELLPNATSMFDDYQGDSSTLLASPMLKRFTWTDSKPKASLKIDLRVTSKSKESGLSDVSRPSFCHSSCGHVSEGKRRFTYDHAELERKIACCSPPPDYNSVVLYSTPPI

C=CC(=O)Nc1cc(Nc2cc(-c3cccc(NC(=O)c4ccc(C(C)(C)C)cc4)c3C)cn(C)c2=O)ccc1C(=O)N1CCOCC1
Activity [1]: Dose-dependent effect
MRT last [2]: 1.36 h
Activity [3]: 89%
Activity [4]: 94%
Activity [5]: 99%
Activity [6]: 97%
Activity [7]: 97%
Activity [8]: 100%
Activity [9]: 100%
Activity [10]: 92%
Activity [11]: 100%
Activity [12]: 100%
Activity [13]: 89%
Activity [14]: 86%
Activity [15]: 96%
Activity [16]: 100%
Activity [17]: 100%
Activity [18]: 100%
Activity [19]: 100%
Activity [20]: 96%
Activity [21]: 92%
Activity [22]: 89%
Activity [23]: 89%
Activity [24]: 97%
Activity [25]: 99%
